Entries after “also recorded” stand apart in the source; their conditions may differ.
Legend:
[1] = system: pyramidal cells of Cntnap2 (Caspr2) mutant mice; assay: Soma size quantitation of pyramidal cells after WYE125132 treatment; format: in vivo
Source text: In order to assess whether we could reverse or prevent the cellular abnormalities (i.e., enlarged pyramidal cell size), we treated with WYE125132 (‘Tx’ in FIG. 12) or vehicle (‘veh’ in FIG. 12) Caspr2^+/−/Thy1-YFP/H and Caspr2^−/−/Thy-1-YFP/H mice and WT littermates also positive for YFP/H for the entire period P12-P35. The mice were perfused and subsequently fixed with 4% PFA and sectioned coronally at 16 microns. Subsequently, 200× images were taken using an epifluorescent microscope of somatosensory and auditory cortex—a total of 15 images per animal/cortical region. The cell somata were traced on Photoshop to quantify pixels. We then converted the pixels to square microns. For the analysis listed here, Caspr2^+/−/Thy1-YFP/H and
Cntnap2 mutant and WT mice were obtained from heterozygous crossings and were born with the expected Mendelian frequencies. […]
WYE125132 (Chemscene) was administered by a daily p.o. gavaging in a volume of 10 ml/kg. […] For the two-photon and cell size quantitation studies, mice were gavaged from P12 to p35, after they were
Soma Size Quantitation. […]
perfused with PBS and then 4% PFA and subsequently post-fixed in 4% PFA for 1 hour at 4° C. […] Sections containing auditory and somatosensory cortices were analyzed. […] Soma size was determined by manually tracing pyramidal cell somata and measuring pixel number per selection. […] For each animal, 90 to 140 somata were measured. […]

[2] = system: layer V pyramidal neurons; assay: Spike-timing-dependent LTP, whole-cell recordings from slices of treated adult mice; format: in vivo
Description: All mice were treated with either WYE125132 or vehicle for a period of 2 weeks after which the animals were euthanized and thalamocortical slices were prepared. Briefly, animals were anesthetized, decapitated and the brain quickly placed into ice-cold dissection buffer containing (in mM): 75 sucrose, 87 NaCl, 2.5 KCl, 1.25 NaH2PO4, 0.5 CaCl2, 7 MgCl2 6H2O, 25 NaHCO3, 10 dextrose, bubbled with 95% O2/5% CO2 (pH 7.4). Slices (400 μm) were prepared with a vibratome (Leica, VT1200S), placed in 33-35° C. for artificial cerebrospinal fluid (ACSF, in mM: 124 NaCl, 2.5 KCl, 1.25 NaH2PO4, 2.5 CaCl2, 1.5 MgSO4 7H2O, 26 NaHCO3, and 10 dextrose) for <30 min; then returned to room temperature >1 hr before use. Slices were then transferred to the recording chamber and perfused (2.0-2.5 ml min-1) with oxygenated ACSF at 33-35° C. and given 30 min to stabilize. Somatic whole-cell recordings were made from layer 5 pyramidal cells in voltage and current clamp mode with a Multiclamp 700B amplifier (Molecular Devices). Selection was based on morphology and electrophysiological criteria. Patch pipettes (3-8MΩ) contained a current clamp solution. Data were filtered at 2 kHz, digitized at 10 kHz and analyzed with Clampfit. Cells were excluded from analysis if Ri or Rs changed by >25% over the course of the recording. Excitatory post-synaptic currents or potentials (EPSCs/Ps) were evoked by extracellular stimulation (0.01-1 ms, 1-10V) with a 4×1 array of electrodes placed in layer 4, and straddling the patched layer 5 neuron. Across mice we compared spontaneous and evoked inhibitory responses by clamping the membrane potential of the cell to sub-threshold levels. Furthermore, we compared inhibition generated by each stimulation electrode, to the corresponding amount of excitation when the cell was held at −80 mV. Lastly, we tested Spike-Timing Dependent Plasticity (STDP).
euthanized. For the electrophysiology and western blot rescue experiments, adult mice were gavaged for 14 consecutive days after which they were euthanized.
Whole cell recordings were made from layer V pyramidal cells of the temporal cortex. Focal extracellular stimulation was applied and excitatory and inhibitory currents were measured across various stimulation intensities to assess E:I balance. For plasticity experiments, extracellular stimulation was paired with postsynaptic action potentials (elicited by current injection via the recording electrode) less than 10 ms after the onset of the EPSP 60 times at 0.1 hz. Baseline strength was compared to synaptic strength 6-15 mins after spike pairing.
We investigated whether we could reverse the impairment in neuronal network activity and plasticity by targeting the overactivation of the mTOR pathway with WYE125132. […]

With CNC(=O)Nc1ccc(-c2nc(N3CC4CCC(C3)O4)c3cnn(C4CCC5(CC4)OCCO5)c3n2)cc1 [WYE125132] the “enlarged pyramidal cell soma size” value ([1]; Cntnap2+/- and Cntnap2-/- (Caspr2) mutant mice, daily p.o. gavage 10 mg/kg, P12 to P33-36 (about 3 weeks), 10 mg/kg) was “completely reverses the enlarged pyramidal cell size; also recorded: complete reversal of the pyramidal cell enlargement phenotype; also recorded: entirely rescued”, the “soma size in WT animals” value ([1]; WT mice, compound versus vehicle) was “no effect on soma size” and the “LTP induction (in words)” value ([2]; Caspr2-/- / Cntnap2 mutant mice treated with WYE125132 for 2 weeks) was “robust LTP; also recorded: successfully induced LTP”. For the same compound, the “LTP induction (in words)” value ([2]; WT littermates treated with WYE125132 for 2 weeks) was “robust LTP”, the “synaptic modification after spike pairing (example recording)” value ([2]; WYE125132-treated Cntnap2-/- mouse, single example whole-cell recording) was 35.1 % increase and the “synaptic modification after spike pairing (LTP summary)” value ([2]; WYE125132-treated Cntnap2-/- mutant mice, n=8, 6-15 min after pairing, error s.e.m.) was 45.4±16.4 % increase.
